Columns and labels:
WT-PARP15cat = target: T1, WT-PARP15cat (Homo sapiens, UniProt Q460N3); assay: In vitro SRPK2 MARylation with WT-PARP15cat; type: biochemical
T1 sequence (Q460N3 482-678 limits assumed): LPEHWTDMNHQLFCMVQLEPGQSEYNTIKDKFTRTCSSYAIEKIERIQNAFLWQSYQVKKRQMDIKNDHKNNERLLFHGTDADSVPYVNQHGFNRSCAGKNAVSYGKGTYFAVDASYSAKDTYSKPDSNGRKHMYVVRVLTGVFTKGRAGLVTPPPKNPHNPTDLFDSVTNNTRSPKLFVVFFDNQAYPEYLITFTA

GFP-WT-PARP10 = target: T2, GFP-WT-PARP10 (Homo sapiens, UniProt Q53GL7); assay: Lysate labeling, HEK 293T cells expressing WT-PARP10; conditions: HEK 293T lysate, WT-PARP10, 100 μM, click conjugation with biotin-azide
T2 sequence (Q53GL7 1-1025): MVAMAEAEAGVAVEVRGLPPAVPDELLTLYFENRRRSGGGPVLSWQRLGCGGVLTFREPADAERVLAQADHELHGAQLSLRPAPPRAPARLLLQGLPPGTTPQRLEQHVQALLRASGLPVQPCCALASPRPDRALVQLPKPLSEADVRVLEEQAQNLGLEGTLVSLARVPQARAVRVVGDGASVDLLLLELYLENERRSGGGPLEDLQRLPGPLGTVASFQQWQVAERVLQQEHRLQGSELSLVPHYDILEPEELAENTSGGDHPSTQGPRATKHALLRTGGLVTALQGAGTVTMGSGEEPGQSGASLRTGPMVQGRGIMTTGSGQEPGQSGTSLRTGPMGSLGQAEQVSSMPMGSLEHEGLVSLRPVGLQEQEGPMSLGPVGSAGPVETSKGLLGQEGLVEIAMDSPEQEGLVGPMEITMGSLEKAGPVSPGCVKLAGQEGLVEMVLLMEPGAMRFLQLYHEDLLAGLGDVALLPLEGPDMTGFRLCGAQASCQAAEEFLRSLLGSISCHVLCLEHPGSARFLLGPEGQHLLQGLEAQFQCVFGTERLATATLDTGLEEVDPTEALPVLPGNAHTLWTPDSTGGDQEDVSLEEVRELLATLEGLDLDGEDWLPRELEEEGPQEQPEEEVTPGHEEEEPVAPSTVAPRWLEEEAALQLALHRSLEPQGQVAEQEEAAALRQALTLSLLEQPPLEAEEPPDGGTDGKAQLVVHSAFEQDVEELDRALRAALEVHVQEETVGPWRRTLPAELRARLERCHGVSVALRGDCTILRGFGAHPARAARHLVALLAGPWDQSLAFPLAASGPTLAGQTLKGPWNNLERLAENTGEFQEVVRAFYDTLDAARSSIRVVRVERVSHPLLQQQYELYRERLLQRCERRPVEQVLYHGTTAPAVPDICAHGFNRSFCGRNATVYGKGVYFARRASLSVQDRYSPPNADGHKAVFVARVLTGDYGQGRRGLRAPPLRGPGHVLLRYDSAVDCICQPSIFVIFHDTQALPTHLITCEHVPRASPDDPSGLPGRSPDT

WT-PARP11 = target: T3, WT-PARP11 (Homo sapiens, UniProt Q9NR21); assay: Lysate labeling, HEK 293T cells expressing WT-PARP11; conditions: HEK 293T lysate
T3 sequence (Q9NR21 1-331 isoform Q9NR21-1): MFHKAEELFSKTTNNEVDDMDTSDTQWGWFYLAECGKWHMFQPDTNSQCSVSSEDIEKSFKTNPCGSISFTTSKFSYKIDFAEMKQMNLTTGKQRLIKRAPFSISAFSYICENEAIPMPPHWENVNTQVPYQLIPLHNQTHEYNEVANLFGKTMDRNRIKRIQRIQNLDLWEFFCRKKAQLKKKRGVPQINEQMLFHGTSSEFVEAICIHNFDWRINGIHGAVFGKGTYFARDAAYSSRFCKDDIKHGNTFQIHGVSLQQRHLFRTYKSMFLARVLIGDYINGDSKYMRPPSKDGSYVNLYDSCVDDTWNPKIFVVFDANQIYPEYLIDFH

WT-PARP10cat = target: T4, WT-PARP10cat (Homo sapiens, UniProt Q53GL7); assay: SRPK2 MARylation assay with WT-PARP10cat; conditions: 100 μM NAD+ analogue, 2 hours at 30° C., in-gel fluorescence
T4 sequence (Q53GL7 806-1025 limits assumed): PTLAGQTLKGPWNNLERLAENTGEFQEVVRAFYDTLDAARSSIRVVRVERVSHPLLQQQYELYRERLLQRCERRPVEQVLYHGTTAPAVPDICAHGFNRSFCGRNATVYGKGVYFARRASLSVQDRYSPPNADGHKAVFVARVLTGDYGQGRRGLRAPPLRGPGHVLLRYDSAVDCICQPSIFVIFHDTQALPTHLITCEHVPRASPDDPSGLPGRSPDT

L926A-PARP10cat = L926A-PARP10cat (Homo sapiens, UniProt Q53GL7, L926A); assay: SRPK2 MARylation assay with L926A-PARP10cat; conditions: relative to WT-PARP10cat; 100 μM NAD+ analogue, in-gel fluorescence
Sequence of L926A-PARP10cat (Q53GL7 806-1025 L926A): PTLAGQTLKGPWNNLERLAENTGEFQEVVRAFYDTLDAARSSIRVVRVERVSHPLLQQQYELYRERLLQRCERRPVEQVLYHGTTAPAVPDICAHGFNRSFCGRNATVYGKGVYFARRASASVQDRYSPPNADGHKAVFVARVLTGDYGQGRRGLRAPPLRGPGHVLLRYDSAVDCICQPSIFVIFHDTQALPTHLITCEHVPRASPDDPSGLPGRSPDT

Compound	use as substrate by WT-PARP15cat to MARylate SRPK2 (WT-PARP15cat)	labeling of lysate proteins (streptavidin-HRP) (GFP-WT-PARP10)	labeling of lysate proteins (streptavidin-HRP) (WT-PARP11)	use as substrate to mediate SRPK2 MARylation by WT-PARP10cat (WT-PARP10cat)	use as substrate to mediate SRPK2 MARylation by L926A-PARP10cat (L926A-PARP10cat)
5-benzyl-6-a-NAD+ [5-Bn-6-a-NAD+]	did not use	low-level of background labeling	Minimal background labeling	–	–
C#CCNc1ncnc2c1ncn2[C@@H]1O[C@H](COP(=O)(O)OP(=O)([O-])OC[C@H]2O[C@@H]([n+]3cccc(C(N)=O)c3)[C@H](O)[C@@H]2O)[C@@H](O)[C@H]1O [6-a-NAD+]	–	–	–	used as a substrate	to a lesser extent
